According to US10189841B2, “Purinones as ubiquitin-specific protease 1 inhibitors” (Forma Therapeutics, Inc., priority 2015, dated 2019):

The compounds below were run against USP1 (construct USP1 (I-785, GG670, 671AA)/UAF1 (I-677)-Flag) (Homo sapiens (Human), UniProt O94782, G670A/G671A) (assay: Ubiquitin-Rhodamine 110 assay for USP1 activity). Settings: USP1/UAF1 25 pM, Ub-Rh110 25 nM, 30 min preincubation.
Chain of USP1 (construct USP1 (I-785, GG670, 671AA)/UAF1 (I-677)-Flag) (O94782 whole entry G670A/G671A): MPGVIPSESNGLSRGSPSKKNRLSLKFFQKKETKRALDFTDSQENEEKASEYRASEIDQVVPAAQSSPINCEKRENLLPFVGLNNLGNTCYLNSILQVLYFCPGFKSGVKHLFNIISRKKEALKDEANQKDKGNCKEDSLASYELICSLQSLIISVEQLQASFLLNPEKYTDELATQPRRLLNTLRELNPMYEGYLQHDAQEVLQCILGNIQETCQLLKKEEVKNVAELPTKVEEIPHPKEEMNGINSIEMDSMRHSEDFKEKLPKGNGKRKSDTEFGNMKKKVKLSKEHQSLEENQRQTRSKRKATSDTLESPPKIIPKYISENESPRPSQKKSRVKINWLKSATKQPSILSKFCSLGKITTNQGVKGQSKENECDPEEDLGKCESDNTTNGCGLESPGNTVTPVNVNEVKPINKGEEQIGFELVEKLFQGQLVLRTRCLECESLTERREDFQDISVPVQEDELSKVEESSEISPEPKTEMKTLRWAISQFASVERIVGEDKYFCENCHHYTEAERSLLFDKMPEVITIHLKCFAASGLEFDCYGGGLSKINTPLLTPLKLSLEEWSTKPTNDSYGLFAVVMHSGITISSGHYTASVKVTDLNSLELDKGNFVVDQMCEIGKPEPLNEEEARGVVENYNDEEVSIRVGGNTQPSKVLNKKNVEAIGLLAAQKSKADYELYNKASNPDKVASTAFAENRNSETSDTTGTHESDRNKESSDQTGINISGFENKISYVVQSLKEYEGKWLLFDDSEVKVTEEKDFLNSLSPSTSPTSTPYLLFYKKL
Chain of USP1 (construct USP1 (I-785, GG670, 671AA)/UAF1 (I-677)-Flag) (Q8TAF3 whole entry partner): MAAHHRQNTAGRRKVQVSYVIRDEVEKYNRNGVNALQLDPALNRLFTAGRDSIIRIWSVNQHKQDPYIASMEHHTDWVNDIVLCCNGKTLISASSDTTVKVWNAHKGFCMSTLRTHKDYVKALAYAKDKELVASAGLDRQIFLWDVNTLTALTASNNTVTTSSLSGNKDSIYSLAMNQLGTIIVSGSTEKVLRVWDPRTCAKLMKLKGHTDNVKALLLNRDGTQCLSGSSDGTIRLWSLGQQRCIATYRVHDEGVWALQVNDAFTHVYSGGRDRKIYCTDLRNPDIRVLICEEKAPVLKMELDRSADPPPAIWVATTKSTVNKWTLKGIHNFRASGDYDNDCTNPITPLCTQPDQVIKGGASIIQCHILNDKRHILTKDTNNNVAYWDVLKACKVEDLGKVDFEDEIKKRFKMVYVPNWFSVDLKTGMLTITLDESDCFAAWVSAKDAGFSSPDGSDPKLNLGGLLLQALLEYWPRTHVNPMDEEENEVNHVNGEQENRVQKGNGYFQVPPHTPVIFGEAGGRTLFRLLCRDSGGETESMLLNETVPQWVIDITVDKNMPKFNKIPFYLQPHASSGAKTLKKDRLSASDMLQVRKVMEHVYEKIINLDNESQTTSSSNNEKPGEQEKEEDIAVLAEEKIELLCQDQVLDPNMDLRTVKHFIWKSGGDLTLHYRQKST
Type: biochemical
Procedure, shortened: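 Ub-Rh110 (25 nM, ≪Km) cleavage read at ex 485/em 535 in Tris pH 8.0, CaCl2, GSH, Prionex, Triton X-100. The screen used 10 µM compound, 100 pM USP1/UAF1 and 45 min at RT.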
For Cc1nc(-c2ccc(Cn3c(=O)[nH]c4cnc(-c5ccccc5C(C)C)nc43)cc2)no1 [Compound I-152, 2-(2-isopropylphenyl)-9-(4-(5-methyl-1,2,4-oxadiazol-3-yl)benzyl)-7,9-dihydro-8H-purin-8-one], the IC50 was < 50 nM. With CC(C)c1ccccc1-c1ncc2c(n1)n(CC1CCN(S(=O)(=O)c3cccnc3)CC1)c(=O)n2C [Compound I-449, 2-(2-isopropylphenyl)-7-methyl-9-((1-(pyridin-3-ylsulfonyl)piperidin-4-yl)methyl)-7,9-dihydro-8H-purin-8-one] the IC50 was > 2000 nM. CC(C)c1ccccc1-c1ncc2[nH]c(=O)n(Cc3ccc(-n4ccc(C5CCN(C)CC5)n4)cc3)c2n1 [Compound I-439, 2-(2-isopropylphenyl)-9-(4-(3-(1-methylpiperidin-4-yl)-1H-pyrazol-1-yl)benzyl)-7,9-dihydro-8H-purin-8-one] showed an IC50 of 50 to 200 nM. CC(C)c1ccccc1-c1ncc2c(n1)n(Cc1ccc(OCCN(C)C)cc1)c(=O)n2C [Compound I-233, 9-(4-(2-(dimethylamino)ethoxy)benzyl)-2-(2-isopropylphenyl)-7-methyl-7,9-dihydro-8H-purin-8-one] was tested, and the IC50 was 50 to 200 nM. For Cc1nc(-c2ccc(Cn3c(=O)n(C)c4cnc(-c5ccccc5C(C)C)nc43)cc2)c(C)s1 [Compound I-304, 9-(4-(2,5-dimethylthiazol-4-yl)benzyl)-2-(2-isopropylphenyl)-7-methyl-7,9-dihydro-8H-purin-8-one], the IC50 was < 50 nM. CC(C)c1ccccc1-c1ncc2c(n1)n(CC1CCN(C(=O)NC3CC3)CC1)c(=O)n2C [Compound I-479, N-cyclopropyl-4-((2-(2-isopropylphenyl)-7-methyl-8-oxo-7,8-dihydro-9H-purin-9-yl)methyl)piperidine-1-carboxamide] was tested, and the IC50 was > 2000 nM. Compound CC(C)c1c(F)cccc1-c1ncc2[nH]c(=O)n(Cc3ccc(-n4cc5c(n4)CNC5)cc3)c2n1 [Compound I-104, 9-(4-(5,6-dihydropyrrolo[3,4-c]pyrazol-2(4H)-yl)benzyl)-2-(3-fluoro-2-isopropylphenyl)-7,9-dihydro-8H-purin-8-one] has an IC50 of 200 to 2000 nM. For O=c1[nH]c2cnc(-c3cccnc3OC(F)F)nc2n1Cc1ccc(-n2nccn2)cc1 [Compound I-4, 9-(4-(2H-1,2,3-triazol-2-yl)benzyl)-2-(2-(difluoromethoxy)pyridin-3-yl)-7,9-dihydro-8H-purin-8-one], the IC50 was > 2000 nM. CO[C@@H](C)c1ccccc1-c1ncc2[nH]c(=O)n(Cc3ccc(-c4nc(C(F)(F)F)cn4C)cc3)c2n1 [Compound I-56, (S)-2-(2-(1-methoxyethyl)phenyl)-9-(4-(1-methyl-4-(trifluoromethyl)-1H-imidazol-2-yl)benzyl)-7,9-dihydro-8H-purin-8-one] was tested, and the IC50 was < 50 nM. CC(C)c1cnccc1-c1ncc2c(n1)n(Cc1ccc(-n3cccn3)cc1)c(=O)n2C [Compound I-516, 9-(4-(1H-Pyrazol-1-yl)benzyl)-2-(3-isopropylpyridin-4-yl)-7-methyl-7,9-dihydro-8H-purin-8-one] was tested, and the IC50 was > 2000 nM. For CC(C)c1ccccc1-c1ncc2[nH]c(=O)n(Cc3ccc(CN4CCOCC4)cc3)c2n1 [Compound I-153, 2-(2-isopropylphenyl)-9-(4-(morpholinomethyl)benzyl)-7,9-dihydro-8H-purin-8-one], the IC50 was > 2000 nM. With CC(C)c1ccccc1-c1ncc2[nH]c(=O)n([C@@H](C)c3ccc(-c4nccn4C)cc3)c2n1 [Compound I-310, (S)-2-(2-isopropylphenyl)-9-(1-(4-(1-methyl-1H-imidazol-2-yl)phenyl)ethyl)-7,9-dihydro-8H-purin-8-one] the IC50 was < 50 nM. CC(C)c1ccccc1-c1ncc2c(n1)n(Cc1ccc(NCC3CC3)cc1)c(=O)n2C [Compound I-488, 9-(4-((cyclopropylmethyl)amino)benzyl)-2-(2-isopropylphenyl)-7-methyl-7,9-dihydro-8H-purin-8-one] showed an IC50 of 50 to 200 nM. CCOc1ncccc1-c1ncc2[nH]c(=O)n(Cc3ccc(-c4nc(C(F)(F)F)cn4C)cc3)c2n1 [Compound I-421, 2-(2-ethoxypyridin-3-yl)-9-(4-(1-methyl-4-(trifluoromethyl)-1H-imidazol-2-yl)benzyl)-7,9-dihydro-8H-purin-8-one] was tested, and the IC50 was < 50 nM. With Cc1cn(-c2ccc(Cn3c(=O)[nH]c4cnc(-c5ccccc5C(C)C)nc43)cc2)nn1 [Compound I-175, 2-(2-isopropylphenyl)-9-(4-(4-methyl-1H-1,2,3-triazol-1-yl)benzyl)-7,9-dihydro-8H-purin-8-one] the IC50 was < 50 nM. CC(C)c1ccccc1-c1ncc2c(n1)n(Cc1ccc(-c3cncn3C)cc1)c(=O)n2C [Compound I-264, 2-(2-isopropylphenyl)-7-methyl-9-(4-(1-methyl-1H-imidazol-5-yl)benzyl)-7,9-dihydro-8H-purin-8-one] was tested, and the IC50 was 50 to 200 nM. Compound CC(C)c1ccccc1-c1ncc2[nH]c(=O)n(Cc3ccc(-c4ncn(C)n4)cc3)c2n1 [Compound I-274, 2-(2-isopropylphenyl)-9-(4-(1-methyl-1H-1,2,4-triazol-3-yl)benzyl)-7,9-dihydro-8H-purin-8-one] has an IC50 of 50 to 200 nM. CC(C)c1c(F)cccc1-c1ncc2c(n1)n(Cc1ccc(-n3cccn3)cc1)c(=O)n2C [Compound I-8, 9-(4-(1H-pyrazol-1-yl)benzyl)-2-(3-fluoro-2-isopropylphenyl)-7-methyl-7,9-dihydro-8H-purin-8-one] was tested, and the IC50 was < 50 nM. In the case of CC(C)c1ccccc1-c1ncc2[nH]c(=O)n(Cc3ccc(-c4nc(C5CCN(C)CC5)cn4C)cc3)c2n1 [Compound I-445, 2-(2-isopropylphenyl)-9-(4-(1-methyl-4-(1-methylpiperidin-4-yl)-1H-imidazol-2-yl)benzyl)-7,9-dihydro-8H-purin-8-one], the IC50 is reported as < 50 nM. In the case of O=c1[nH]c2cnc(-c3cccnc3C3CC3)nc2n1Cc1ccc(-c2nc(C(F)(F)F)cn2C2COC2)cc1 [Compound I-33, 2-(2-cyclopropylpyridin-3-yl)-9-(4-(1-(oxetan-3-yl)-4-(trifluoromethyl)-1H-imidazol-2-yl)benzyl)-7,9-dihydro-8H-purin-8-one], the IC50 is reported as < 50 nM. With COC[C@@H](C)Nc1ncccc1-c1ncc2[nH]c(=O)n(Cc3ccc(-c4nc(C(F)(F)F)cn4C)cc3)c2n1 [Compound I-319, (R)-2-(2-((1-methoxypropan-2-yl)amino)pyridin-3-yl)-9-(4-(1-methyl-4-(trifluoromethyl)-1H-imidazol-2-yl)benzyl)-7,9-dihydro-8H-purin-8-one] the IC50 was 200 to 2000 nM. CC(=O)N1CCC(c2ccn(-c3ccc(Cn4c(=O)[nH]c5cnc(-c6cccc(F)c6C(C)C)nc54)cc3)n2)CC1 [Compound I-464, 9-(4-(3-(1-acetylpiperidin-4-yl)-1H-pyrazol-1-yl)benzyl)-2-(3-fluoro-2-isopropylphenyl)-7,9-dihydro-8H-purin-8-one] showed an IC50 of 50 to 200 nM. With CC(C)c1cccc(F)c1-c1ncc2[nH]c(=O)n(Cc3ccc(-n4cccn4)cc3)c2n1 [Compound I-96, 9-(4-(1H-pyrazol-1-yl)benzyl)-2-(2-fluoro-6-isopropylphenyl)-7,9-dihydro-8H-purin-8-one] the IC50 was < 50 nM. For CN(CC(F)(F)F)c1ncccc1-c1ncc2[nH]c(=O)n(Cc3ccc(-c4nc(C(F)(F)F)cn4C)cc3)c2n1 [Compound I-332, 2-(2-(methyl(2,2,2-trifluoroethyl)amino)pyridin-3-yl)-9-(4-(1-methyl-4-(trifluoromethyl)-1H-imidazol-2-yl)benzyl)-7,9-dihydro-8H-purin-8-one], the IC50 was < 50 nM. For CC(C)c1ccccc1-c1ncc2[nH]c(=O)n(Cc3ccc(-c4cnn(C5CCOCC5)c4)cc3)c2n1 [Compound I-519, 2-(2-Isopropylphenyl)-9-(4-(1-(tetrahydro-2H-pyran-4-yl)-1H-pyrazol-4-yl)benzyl)-7,9-dihydro-8H-purin-8-one], the IC50 was 200 to 2000 nM. In the case of CC(=O)N1CCCC(c2ccn(-c3ccc(Cn4c(=O)[nH]c5cnc(-c6ccccc6C(C)C)nc54)cc3)n2)C1 (centres unmarked) [Compound I-468, 9-(4-(3-(1-acetylpiperidin-3-yl)-1H-pyrazol-1-yl)benzyl)-2-(2-isopropylphenyl)-7,9-dihydro-8H-purin-8-one], the IC50 is reported as < 50 nM. CC(C)c1ccccc1-c1ncc2c(n1)n(Cc1ccc(-c3nc(C(F)(F)F)cn3CCO)cc1)c(=O)n2C [Compound I-106, 9-(4-(1-(2-Hydroxyethyl)-4-(trifluoromethyl)-1H-imidazol-2-yl)benzyl)-2-(2-isopropylphenyl)-7-methyl-7,9-dihydro-8H-purin-8-one] was tested, and the IC50 was < 50 nM. Work on CC(C)c1ccccc1-c1ncc2[nH]c(=O)n(Cc3ccc(C(=O)NCc4ccc(F)cc4)cc3)c2n1 [Compound I-354, N-(4-fluorobenzyl)-4-((2-(2-isopropylphenyl)-8-oxo-7,8-dihydro-9H-purin-9-yl)methyl)benzamide] yielded an IC50 of 50 to 200 nM. Work on CC(C)c1ccccc1-c1ncc2c(n1)n(Cc1ccc(N(C)CC3CC3)cc1)c(=O)n2C [Compound I-490, 9-(4-((cyclopropylmethyl)(methyl)amino)benzyl)-2-(2-isopropylphenyl)-7-methyl-7,9-dihydro-8H-purin-8-one] yielded an IC50 of 200 to 2000 nM. Work on CC1CCN(C(=O)c2ccc(Cn3c(=O)[nH]c4cnc(-c5ccccc5C(C)C)nc43)cc2)CC1 [Compound I-366, 2-(2-isopropylphenyl)-9-(4-(4-methylpiperidine-1-carbonyl)benzyl)-7,9-dihydro-8H-purin-8-one] yielded an IC50 of 50 to 200 nM. Work on CC(C)c1ccccc1-c1ncc2[nH]c(=O)n(Cc3ccc(C(=O)N4CC(F)C4)cc3)c2n1 [Compound I-386, 9-(4-(3-fluoroazetidine-1-carbonyl)benzyl)-2-(2-isopropylphenyl)-7,9-dihydro-8H-purin-8-one] yielded an IC50 of 50 to 200 nM. In the case of Cc1cn(C(C)C)c(-c2ccc(Cn3c(=O)[nH]c4cnc(-c5ccccc5C(C)C)nc43)cc2)n1 [Compound I-537, 9-(4-(1-isopropyl-4-methyl-1H-imidazol-2-yl)benzyl)-2-(2-isopropylphenyl)-7,9-dihydro-8H-purin-8-one], the IC50 is reported as < 50 nM.
